Reference: PubChem BioAssay (NCI)
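Results reflect a 48-hour exposure of cells in 96-well plates to compound at five concentrations. TGI is the concentration that stops growth completely.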

Columns and labels:
Assay in all cases: inhibition of tumour cell growth, NCI panel, 48 h
[1] = system: UO-31 renal
[2] = system: SF-539 CNS
[3] = system: NCI-H226 lung
[4] = system: MDA-MB-435
[5] = system: RPMI-8226 leukemia
[6] = system: HCC-2998 colon
[7] = system: COLO 205 colon
[8] = system: BT-549 breast
[9] = system: CCRF-CEM leukemia
[10] = system: RXF 393 renal

SMILES	TGI [1] [µM]	TGI [2] [µM]	TGI [3] [µM]	TGI [4] [µM]	TGI [5] [µM]	TGI [6] [µM]	TGI [7] [µM]	TGI [8] [µM]	TGI [9] [µM]	TGI [10] [µM]
Cn1c2ccccc2c(=O)c2cccc(C(=O)NC(CCCN=C(N)N)C(=O)O)c21 (configuration not stated)	> 100	> 100	> 100	> 100	> 100	> 100	> 100	> 100		
O=C(O)/C=c1/c2ccccc2n2nc3ccccc3c12	> 100	73.5		> 100	70.1	84.9	33.5	> 100	99.6	> 100
CN1COCc2c1ccc1cc3ccc4c(c3nc21)COCN4S(C)(=O)=O	> 100		> 100	> 100		> 100	> 100	> 100	> 100	> 100
O=C(O)c1ccc(OCc2nc3cc(C(F)(F)F)ccc3nc2-c2ccccc2)cc1	39	76.8	> 100	> 100		> 100	37.8	> 100	> 100	> 100
Nc1ccc(S2(c3ccc(N)cc3)C=C(c3ccccc3)C(c3ccccc3)=C2)cc1	> 90.5	> 100	> 63.3	> 71.3	> 100	> 100	> 100		> 100	> 100
Cn1c(COC(=O)Nc2ccccc2)c(COC(=O)Nc2ccccc2)c2ccc3cc(Cl)c(Cl)cc3c21	26.5	44.6	54.7	29.1		15.8	14.5	12.6	> 75	39.5
C=C1CN2CC(=C)CN(C1)CS(=O)(=O)N1CC(=C)CN(CC(=C)C1)S(=O)(=O)N1CC(=C)CN(CC(=C)C1)S(=O)(=O)C2	> 100	39.9	71.5	> 100	> 100	37.5	> 100	> 100		56.8
COc1ccc(C2OC(c3ccncc3)=NN2C)cc1OC (configuration not stated)	> 100	> 100	> 100	> 100	> 100	> 100	> 100		> 100	> 100
CCCCN=C(c1ccccc1)N1CCOCC1	> 100	> 100	> 100	> 100	> 100		> 100	> 100	> 100	> 100
O=C1O[C@H](c2ccc3c(c2)OCO3)[C@H]2CO[C@@H](c3ccc4c(c3)OCO4)[C@@H]12	> 100	> 100	> 100	> 100	> 100	> 100	> 100	> 100		> 100
C=C1C(=O)C=C[C@]2(C)CC[C@H]3C(=C)C(=O)O[C@@H]3[C@@H]12	9	2.61		3.21	5.87		2.24	9.85	> 100	4.47
Cc1ccc(S(=O)(=O)NC(=O)N[C@@H](Cc2cnc[nH]2)C(=O)O)cc1	> 100	> 100			> 100		> 100	> 100	> 100	> 100
CN1[C@@H]2C[C@@H](OC(=O)[C@H](CO)c3ccccc3)C[C@H]1[C@@H]1O[C@@H]12	> 100		> 100	> 100	> 100		> 100	> 100	> 100	> 100
Nc1[nH]nc2nc3ccc(C(F)(F)F)cc3nc12	49.9			> 100	> 100	> 100	57.3	> 100	37.9	57.1
CCNC(=O)Nc1cccc(NC(=O)NCC)n1	> 100	> 100	> 100	> 100		> 100	> 100	> 100	> 100	> 100
COc1cc(OC)c(C2c3cc4c(cc3OC(N3CCCC3)C2C)OCO4)c(OC)c1 (configuration not stated)	25.8	25.9			43.1	21.9			45.5	
COc1ccc(C2COc3cc(O)c(O)cc3C2)cc1 (configuration not stated)	279	136	213		25.2	184	27.8		16.1	20.3
Cc1ccc(O)c(-c2cscn2)c1	> 100	> 100		> 100	> 100	> 100	> 100	> 100	> 100	
CSc1ncnc2c1ncn2CCC#N	> 100	> 100	> 100	> 100	> 100		> 100		> 100	> 100
CC1CCCC(CC(=O)O)(CC(=O)O)C1 (configuration not stated)	> 100	> 100	> 100	> 100	> 100	> 100	> 100	> 100	> 100	
[N-]=[N+]=NC1=C(c2ccccn2)C(=O)c2cccc3cccc1c23	36.1	> 100		> 100	> 100	> 100	> 100	67.2	> 100	> 100
COc1ccc2c(cnc3c4cc(OC)c(OC)cc4ccc23)c1	> 100	> 100	> 100	> 100		> 100	> 100	> 100	> 100	> 100
CCOc1ccc(/C=C2/C(=O)N=C(NC(C)=O)N2C)cc1	> 100	> 100	> 100	> 100		> 100	> 100	> 100		> 100
Cc1nc2sc3ccccc3n2c(=O)c1N=Nc1ccc(Cl)cc1		> 100	> 100	> 100	> 100		> 100	> 100	> 100	> 100
COC(=O)C1CCCN1C(=O)C(Cc1cn(S(=O)(=O)c2ccc(C)cc2)cn1)NC(=O)OC(C)(C)C (configuration not stated)	> 100		> 100		> 100	> 100		> 100	> 100	> 100
